We go through 51 compounds from PubChem BioAssay AID743304 (Broad Institute, 2014).

Molecules are shown by their SMILES. Values joined by “and” are separate entries in the source; they are usually repeats but may differ in a detail not shown here. Identical values can stand only once. Active and inactive are the calls of the source.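 How the source made its calls: active means signal drop whose fitted half-maximal dose is no more than twice the top valid dose; inconclusive means flat curve with 30 to 70% inhibition, or unreliable fit; inactive means the rest, including rising signal.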

Test system in one assay: not listed separately
The assay is described as follows: C. neoformans growth inhibition with sorbitol, dose response, mechanism study for C. neoformans lysis project, alamar blue, dry powder, set 3 (AID 743304). The note with it: C. neoformans growth with sorbitol, alamar blue, 24 h; at 35 µM (top of the series). For orientation: Resazurin is reduced to fluorescent resorufin, in cell work by metabolically active cells.
As to `COc1ccccc1OCCn1c(=S)[nH]c2ccccc21`, the activity change, negative = inhibition was 36.1% (inactive).

Take `Cc1cccc(OCCn2c(=S)[nH]c3cc(C(F)(F)F)ccc32)c1`: the activity change, negative = inhibition is 8.97% (inactive).

Turning to `Cc1ccc(C(C)C)c(OCCn2c(=S)[nH]c3ccc(Cl)cc32)c1`, the activity change, negative = inhibition was 36.9% (inactive).

For the compound `Cc1ccc(C(C)C)c(OCCn2c(=S)[nH]c3c(Cl)cccc32)c1`, the activity change, negative = inhibition was -14.9% (inactive).

Turning to `S=c1[nH]c2cc(Cl)ccc2n1CCOc1ccccc1`, the activity change, negative = inhibition is 17.6% (inactive).

As for `Cc1ccc(C(C)C)c(OCCn2c(=S)[nH]c3c(F)cccc32)c1`, the activity change, negative = inhibition is 48.2% (inactive).

Regarding `Cc1ccc(C(C)C)c(OCCn2c(=S)[nH]c3c(C)cccc32)c1`, the activity change, negative = inhibition is 34.1% (inactive).

With `c1ccc(OCCn2cnc3ccccc32)cc1`, the activity change, negative = inhibition is 39.4% (inactive).

On to `Cc1ccc(OCCn2c(=S)[nH]c3ccccc32)c(C)c1`, for which the activity change, negative = inhibition is 7.99% (inactive).

`CC(C)c1ccccc1NCCn1c(=S)[nH]c2ccccc21`: the activity change, negative = inhibition is 1.72% (inactive).

For `Cc1cccc(OCCn2c(=S)[nH]c3ccc(C(F)(F)F)cc32)c1`, the activity change, negative = inhibition was 24.8% (inactive).

As for `Cc1ccc(C(C)C)c(OCCn2c(=S)[nH]c3cc(F)ccc32)c1`, the activity change, negative = inhibition is 9.32% (inactive).

For the compound `Cc1ccc(C(C)C)c(OCCn2c(=S)[nH]c3ccc(F)cc32)c1`, the activity change, negative = inhibition was 14.7% (inactive).

In the case of `Cc1ccc(C)c(OCCn2c(=S)[nH]c3ccccc32)c1`, the activity change, negative = inhibition is -7.02% (inactive).

For another assay, the system named is C. neoformans growth with sorbitol, alamar blue, 24 h. Described as above.
Conditions: not given
In general, AC50 refers to the concentration giving half of the maximal activity seen. For `Fc1ccc2c(c1)[nH]c(=S)n2CCOc1ccccc1`, the AC50 was 25 µM and 23.1 µM.

In the case of `S=c1[nH]c2ccccc2n1CCOc1ccccc1`, the AC50 was 24.5 µM.

As to `Fc1cccc2c1[nH]c(=S)n2CCOc1ccccc1`, the AC50 was 21.4 µM and 22.2 µM and 23.1 µM.

For `CCOc1ccc(OCCn2c(=S)[nH]c3ccccc32)cc1`, the AC50 is 11.1 µM.

As for `Cc1ccc(C(C)C)c(OCCn2c(=S)[nH]c3cccc(F)c32)c1`, the AC50 is 10.9 µM.

For `Cc1ccccc1OCCn1c(=S)[nH]c2ccccc21`, the AC50 was 31.2 µM.

Turning to `Cc1ccc(C(C)C)c(OCCn2c(=S)[nH]c3cccc(C)c32)c1`, the AC50 was 16.4 µM.

Regarding `Fc1ccccc1OCCn1c(=S)[nH]c2ccccc21`, the AC50 was 21.9 µM.

Consider `Cc1cccc(OCCn2c(=S)[nH]c3cc(F)ccc32)c1`, for which the AC50 was 11.2 µM and 10.4 µM.

As for `Cc1ccc(OCCn2c(=S)[nH]c3ccccc32)cc1`, the AC50 was 6.11 µM.

Consider `O=c1[nH]c2ccccc2n1CCOc1ccccc1`, for which the AC50 is 24.1 µM.

As for `Cc1ccc(OCCn2cnc3ccccc32)cc1`, the AC50 was 5.96 µM.

Consider `CC(C)(C)c1ccc(OCCn2c(=S)[nH]c3ccccc32)cc1`, for which the AC50 was 4.94 µM.

In the case of `S=c1[nH]c2ccccc2n1CCOc1ccc(Cl)cc1`, the AC50 was 6.3 µM.

With `CC(C)c1ccccc1OCCn1c(=S)[nH]c2ccccc21`, the AC50 is 18.4 µM.

For the compound `Fc1ccc(OCCn2c(=S)[nH]c3ccccc32)cc1`, the AC50 was 27.3 µM.

As for `S=c1[nH]c2ccccc2n1CCOc1ccccc1Cl`, the AC50 was 24 µM.

With `Cc1ccc(C(C)C)c(OCCn2c(CO)nc3ccccc32)c1`, the AC50 was 33.6 µM.

In the case of `COc1cccc(OCCn2c(=S)[nH]c3ccccc32)c1`, the AC50 was 26.1 µM.

For `Cc1ccc(C(C)C)c(OCCn2c(=S)[nH]c3cccc(Cl)c32)c1`, the AC50 is 7.25 µM.

In the case of `Cc1ccc2c(c1)[nH]c(=S)n2CCOc1ccccc1`, the AC50 is 11.6 µM and 12.9 µM.

As for `Cc1ccc(OCCn2c(=S)[nH]c3ccccc32)c(C(C)C)c1`, the AC50 was 10.2 µM and 6.37 µM.

On to `Cc1ccc(OCCn2cnc3ccccc32)c(C(C)C)c1`, for which the AC50 was 24 µM.

As for `S=c1[nH]c2cccc(Cl)c2n1CCOc1ccccc1`, the AC50 was 5.74 µM and 5.16 µM.

Regarding `CC(C)(C)c1ccccc1OCCn1c(=S)[nH]c2ccccc21`, the AC50 is 8.32 µM.

With `Cc1cccc(OCCn2c(=S)[nH]c3ccccc32)c1C`, the AC50 was 6.75 µM.

For the compound `Cc1cccc2[nH]c(=S)n(CCOc3ccccc3)c12`, the AC50 was 14.2 µM.

In the case of `Fc1ccc2[nH]c(=S)n(CCOc3ccccc3)c2c1`, the AC50 is 23.5 µM.

As for `Cc1cccc(OCCn2c(=S)[nH]c3c(F)cccc32)c1`, the AC50 was 16.4 µM and 16.6 µM.

For `Cc1ccc(OCCn2c(C)nc3ccccc32)cc1`, the AC50 was 6.48 µM.

`Fc1cccc(OCCn2c(=S)[nH]c3ccccc32)c1`: the AC50 was 20.5 µM.

In the case of `Cc1ccc(OCCn2c(SCCO)nc3ccccc32)c(C(C)C)c1`, the AC50 is 8.48 µM.

With `CC(C)(C)c1ccc(OCCn2cnc3ccccc32)cc1`, the AC50 is 8.05 µM.

Turning to `CC(C)c1ccc(OCCn2c(=S)[nH]c3ccccc32)cc1`, the AC50 is 4.21 µM.

Take `Cc1ccc(C(C)C)c(OCCn2c(=S)[nH]c3ccccc32)c1`: the half-maximal activity concentration (AC50) is 6.96 µM and 7.67 µM.

On to `COc1ccc(OCCn2c(=S)[nH]c3ccccc32)cc1`, for which the AC50 was 26.2 µM.

With `Cc1cccc(OCCn2c(=S)[nH]c3ccccc32)c1`, the AC50 was 22.4 µM.
